This is an account of results in patent publication US10781204B2, “TYK2 inhibitors and uses thereof” (Nimbus Lakshmi, Inc., priority 2015, dated 2020).

Assay [1] concerns JAK2-pSTAT5 (GM-CSF induced pSTAT5). Put plainly: GM-CSF induced pSTAT5 in human PBMC. To be noted: Homo sapiens, PBMC, 20 min, 5 ng/mL GM-CSF. Type of assay: cell-based. The method in brief:
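Thawed human PBMC, 200,000 per well in serum-containing medium, were preincubated 1 hr at 37 C with compound in 0.1% DMSO. GM-CSF at 5 ng/mL final was added for 20 minutes, then pSTAT5 and total STAT5 in lysates were measured by MSD immunoassay.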

A further assay addresses JAK2 (Homo sapiens (Human), UniProt O60674). Put plainly: JAK2 radioactive kinase assay. Type of assay: biochemical. The settings on record: ATP 10 μM. The method in brief: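 Radiometric assay in Hepes pH 7.5, MgCl2, EGTA, Brij35, BSA, DTT, 1% DMSO, with 10 μM [33P]ATP, 120 min at room temp; P81 paper capture and counting. […]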
Assay [2] concerns Tyk2-pSTAT4 (IL-12 induced pSTAT4). Put plainly: IL-12 induced pSTAT4 in human PBMC. The class given is cell-based. To be noted: Homo sapiens, PBMC, 0.5 h, 1.7 ng/mL IL-12, 30 minutes. The method in brief: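 pSTAT4 and total STAT4 quantified by MSD in cell lysates after 30 minutes of 1.7 ng/mL IL-12 stimulation. Beforehand, compound (0.1% DMSO final) sat 1 hr at 37 C on 200,000 thawed buffy-coat PBMC per well in serum-containing medium.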

For a further assay, the target named is TYK2 (Homo sapiens (Human), UniProt P29597). Put plainly: Tyk2 radioactive kinase assay. The settings on record: ATP 10 μM. The class given is biochemical. The method in brief:
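Recombinant human TYK2 (Invitrogen) was mixed with 20 μM peptide substrate in a buffer of 20 mM Hepes pH 7.5, 10 mM MgCl2, 1 mM EGTA, 0.02% Brij35, 0.02 mg/mL BSA, 0.1 mM […], 2 mM DTT and 1% DMSO, and compounds in DMSO were added. Adding ^33P-ATP (10 μM ATP) started the reaction, which ran 120 min at room temperature. Mixtures were then spotted onto P81 ion-exchange paper, washed thoroughly in 0.75% phosphoric acid, and counted for radioactivity.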

SMILES strings stand for the structures.

JAK2, sequence (O60674 whole entry): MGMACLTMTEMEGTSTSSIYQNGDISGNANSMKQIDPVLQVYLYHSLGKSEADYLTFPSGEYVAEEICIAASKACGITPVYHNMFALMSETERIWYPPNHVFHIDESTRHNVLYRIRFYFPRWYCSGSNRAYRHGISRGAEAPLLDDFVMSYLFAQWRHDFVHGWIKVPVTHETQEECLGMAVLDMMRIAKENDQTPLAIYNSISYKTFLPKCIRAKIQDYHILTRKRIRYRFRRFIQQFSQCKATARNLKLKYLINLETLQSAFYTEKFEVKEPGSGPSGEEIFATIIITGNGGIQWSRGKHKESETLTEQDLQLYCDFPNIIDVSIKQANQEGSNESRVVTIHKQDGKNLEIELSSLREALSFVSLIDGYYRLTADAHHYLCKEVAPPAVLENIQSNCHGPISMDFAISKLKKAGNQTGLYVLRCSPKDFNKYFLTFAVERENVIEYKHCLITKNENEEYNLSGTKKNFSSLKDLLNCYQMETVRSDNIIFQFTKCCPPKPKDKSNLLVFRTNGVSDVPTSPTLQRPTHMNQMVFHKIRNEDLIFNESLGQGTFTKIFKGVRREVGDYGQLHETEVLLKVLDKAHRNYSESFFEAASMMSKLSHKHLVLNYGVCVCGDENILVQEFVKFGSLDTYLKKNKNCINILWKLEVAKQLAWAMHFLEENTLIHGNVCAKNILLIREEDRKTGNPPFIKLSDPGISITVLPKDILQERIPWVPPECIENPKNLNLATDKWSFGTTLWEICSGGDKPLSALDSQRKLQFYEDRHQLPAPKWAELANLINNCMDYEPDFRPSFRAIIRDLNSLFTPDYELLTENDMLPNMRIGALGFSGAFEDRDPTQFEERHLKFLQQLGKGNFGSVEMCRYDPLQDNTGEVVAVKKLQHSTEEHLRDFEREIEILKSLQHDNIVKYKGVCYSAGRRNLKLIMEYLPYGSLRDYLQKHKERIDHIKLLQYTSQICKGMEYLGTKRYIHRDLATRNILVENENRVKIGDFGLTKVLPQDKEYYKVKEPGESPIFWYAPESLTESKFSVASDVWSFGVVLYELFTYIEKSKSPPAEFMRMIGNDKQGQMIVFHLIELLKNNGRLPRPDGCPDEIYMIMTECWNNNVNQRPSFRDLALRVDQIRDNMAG
TYK2, sequence (P29597 whole entry): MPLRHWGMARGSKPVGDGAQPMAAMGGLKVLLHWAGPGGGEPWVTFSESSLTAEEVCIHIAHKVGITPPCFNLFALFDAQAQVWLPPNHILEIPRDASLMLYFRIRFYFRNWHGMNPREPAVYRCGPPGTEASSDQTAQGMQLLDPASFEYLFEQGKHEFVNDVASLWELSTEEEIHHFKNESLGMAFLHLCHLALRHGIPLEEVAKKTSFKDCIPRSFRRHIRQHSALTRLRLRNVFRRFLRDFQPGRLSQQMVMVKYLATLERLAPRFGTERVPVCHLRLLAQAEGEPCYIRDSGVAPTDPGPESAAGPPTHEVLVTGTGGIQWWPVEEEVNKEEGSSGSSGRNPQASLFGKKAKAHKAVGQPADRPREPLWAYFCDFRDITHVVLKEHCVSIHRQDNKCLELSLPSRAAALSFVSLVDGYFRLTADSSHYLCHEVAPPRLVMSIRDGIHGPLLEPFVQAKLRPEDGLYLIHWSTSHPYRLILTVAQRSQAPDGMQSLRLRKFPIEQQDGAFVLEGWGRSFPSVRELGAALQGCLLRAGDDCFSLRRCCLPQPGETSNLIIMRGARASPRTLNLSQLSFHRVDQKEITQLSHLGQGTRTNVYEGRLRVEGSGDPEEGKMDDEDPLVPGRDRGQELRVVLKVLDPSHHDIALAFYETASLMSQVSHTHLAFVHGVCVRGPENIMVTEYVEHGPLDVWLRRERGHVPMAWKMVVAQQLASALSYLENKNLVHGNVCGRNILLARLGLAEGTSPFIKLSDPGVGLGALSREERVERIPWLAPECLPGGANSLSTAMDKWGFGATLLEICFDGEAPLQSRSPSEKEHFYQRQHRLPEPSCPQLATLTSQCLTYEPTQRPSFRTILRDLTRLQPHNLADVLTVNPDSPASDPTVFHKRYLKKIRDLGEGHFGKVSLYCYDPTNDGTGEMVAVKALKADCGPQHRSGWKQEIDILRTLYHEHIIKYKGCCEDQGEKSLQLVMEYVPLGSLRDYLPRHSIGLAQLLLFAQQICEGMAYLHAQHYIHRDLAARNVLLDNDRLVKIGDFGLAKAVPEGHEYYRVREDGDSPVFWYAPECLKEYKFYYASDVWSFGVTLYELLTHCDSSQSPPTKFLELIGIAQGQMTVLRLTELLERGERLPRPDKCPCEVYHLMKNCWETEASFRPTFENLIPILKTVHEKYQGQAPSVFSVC

As for `[2H]C([2H])([2H])O[C@H]1CN(c2ccn(-c3cc(-c4c(F)cccc4C#N)nc4c3C(=O)NC4)n2)C[C@H]1O` [I-224, 3-fluoro-2-(4-(3-((3R,4S)-3-hydroxy-4-(methoxy-d3)pyrrolidin-1-yl)-1H-pyrazol-1-yl)-5-oxo-6,7-dihydro-5H-pyrrolo[3,4-b]pyridin-2-yl)benzonitrile], the EC50 (usually the concentration that produces a half-maximal response) in assay [1] was 100 to 2000 nM; in assay [2] it was 30 to 100 nM. In addition, the inhibitory constant (Ki) – broadly, the equilibrium dissociation constant of an inhibitor or competing ligand from its target – fell in the range of 10 to 100 nM on JAK2 and 0.1 to 10 nM on TYK2.
